IC50 data for 21 molecules are collected here from US11919901B2 (Syndax Pharmaceuticals, Inc., priority 2021, dated 2024).

The subject of this assay is MV4-11 cells. The assay is described as follows: Cell proliferation assay MV4;11 (CellTiter-Glo, 72 hours). In kind it is cell-based. The settings on record: Homo sapiens; MV4;11 leukemia cell line, 72 hours; read-out: MV4; 11 IC50. A digest of the protocol:
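Luminescent CellTiter-Glo readout after 72 h culture, 37 °C, 5% CO2, expressed relative to vehicle-treated wells, with maximal inhibition taken at the highest dose. MLL-rearranged MV4-11 leukemia cells; final compound range 0.632 to 2000 nM in eight steps.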

Structures are written as SMILES.

With `C[C@@H]1COC[C@H](C)N1C(=O)c1cc(F)ccc1Oc1cncnc1N1CC2(CCN(C[C@@H]3CC[C@@H](NS(=O)(=O)N4CCC4)CO3)CC2)C1` [Example 161, N-((3R,6S)-6-((2-(5-(2-((3R,5S)-3,5-Dimethylmorpholine-4-carbonyl)-4-fluorophenoxy)pyrimidin-4-yl)-2,7-diazaspiro[3.5]nonan-7-yl)methyl)tetrahydro-2H-pyran-3-yl)azetidine-1-sulfonamide], the IC50 was below 100 nM.
For `C[C@@H]1COC[C@@H](C)N1C(=O)c1cc(F)ccc1Oc1cncnc1N1CC2(CCN(C[C@@H]3CC[C@@H](NS(=O)(=O)c4ccccc4)CO3)CC2)C1` [Example 120, N-((3R,6S)-6-((2-(5-(2-((3R,5R)-3,5-Dimethylmorpholine-4-carbonyl)-4-fluorophenoxy)pyrimidin-4-yl)-2,7-diazaspiro[3.5]nonan-7-yl)methyl)tetrahydro-2H-pyran-3-yl)benzenesulfonamide] the value was below 100 nM; for `C[C@@H]1COC[C@@H](C)N1C(=O)c1cc(F)ccc1Oc1cncnc1N1CC2(CCN(C[C@@H]3CC[C@@H](NS(=O)(=O)NCC4CC4)CO3)CC2)C1` [Example 158, (Cyclopropylmethyl)({[(3R,6S)-6-{[2-(5-{2-[(3R,5R)-3,5-dimethylmorpholine-4-carbonyl]-4-fluorophenoxy}pyrimidin-4-yl)-2,7-diazaspiro[3.5]nonan-7-yl]methyl}oxan-3-yl]sulfamoyl})amine], below 100 nM.
Turning to `CC(C)N(C(=O)c1cc(F)ccc1Oc1cncnc1N1CC2(CCN(C[C@@H]3CC[C@@H](NS(=O)(=O)C(C)C)CO3)CC2)C1)C1CC(F)(F)C1` [Example 110, N-(3,3-Difluorocyclobutyl)-5-fluoro-N-isopropyl-2-((4-(7-(((2S,5R)-5-((1-methylethyl)sulfonamido)tetrahydro-2H-pyran-2-yl)methyl)-2,7-diazaspiro[3.5]nonan-2-yl)pyrimidin-5-yl)oxy)benzamide], the IC50 is below 100 nM.
For `CCNS(=O)(=O)N[C@@H]1CC[C@@H](CN2CCC3(CC2)CN(c2ncncc2Oc2ccc(F)cc2C(=O)N(C(C)C)C2CC2)C3)OC1` [Example 145, N-Cyclopropyl-2-((4-(7-(((2S,5R)-5-((N-ethylsulfamoyl)amino)tetrahydro-2H-pyran-2-yl)methyl)-2,7-diazaspiro[3.5]nonan-2-yl)pyrimidin-5-yl)oxy)-5-fluoro-N-isopropylbenzamide] the value was below 100 nM; for `CC(C)N(CC(F)(F)F)C(=O)c1cc(F)ccc1Oc1cncnc1N1CC2(CCN(C[C@@H]3CC[C@@H](NS(=O)(=O)N(C)C)CO3)CC2)C1` [Example 107, 2-((4-(7-(((2S,5R)-5-((N,N-Dimethylsulfamoyl)amino)tetrahydro-2H-pyran-2-yl)methyl)-2,7-diazaspiro[3.5]nonan-2-yl)pyrimidin-5-yl)oxy)-5-fluoro-N-isopropyl-N-(2,2,2-trifluoroethyl)benzamide], below 100 nM; for `CCNS(=O)(=O)N[C@H]1CC[C@H](CN2CCC3(CC2)CN(c2ncnnc2Oc2ccc(F)cc2C(=O)N(CC(F)(F)F)C(C)C)C3)OC1` (stereo in doubt) [Example 193, 2-((5-(7-(((2R,5S)-5-((N-Ethylsulfamoyl)amino)tetrahydro-2H-pyran-2-yl)methyl)-2,7-diazaspiro[3.5]nonan-2-yl)-1,2,4-triazin-6-yl)oxy)-5-fluoro-N-isopropyl-N-(2,2,2-trifluoroethyl)benzamide], below 100 nM.
Turning to `CCN(C(=O)c1cc(F)ccc1Oc1cncnc1N1CC2(CCN(C[C@@H]3CC[C@@H](NS(=O)(=O)C4CCC4)CO3)CC2)C1)C(C)C` [Example 6, 2-((4-(7-(((2S,5R)-5-(Cyclobutanesulfonamido)tetrahydro-2H-pyran-2-yl)methyl)-2,7-diazaspiro[3.5]nonan-2-yl)pyrimidin-5-yl)oxy)-N-ethyl-5-fluoro-N-isopropylbenzamide], the IC50 was below 100 nM.
For `CCN(C(=O)c1cc(F)ccc1Oc1cncnc1N1CC2(CCN(C[C@@H]3CC[C@@H](NS(=O)(=O)c4ccccc4)CO3)CC2)C1)C(C)C` [Example 45, N-Ethyl-5-fluoro-N-isopropyl-2-((4-(7-(((2S,5R)-5-(phenylsulfonamido)tetrahydro-2H-pyran-2-yl)methyl)-2,7-diazaspiro[3.5]nonan-2-yl)pyrimidin-5-yl)oxy)benzamide] the value was below 100 nM; for `CCS(=O)(=O)N[C@@H]1CC[C@@H](CN2CCC3(CC2)CN(c2ncncc2Oc2ccc(F)cc2C(=O)N(C(C)C)C(C)C)C3)OC1` [Example 13, 2-((4-(7-(((2S,5R)-5-(Ethylsulfonamido)tetrahydro-2H-pyran-2-yl)methyl)-2,7-diazaspiro[3.5]nonan-2-yl)pyrimidin-5-yl)oxy)-5-fluoro-N,N-diisopropylbenzamide], below 100 nM.
As to `CCS(=O)(=O)N[C@@H]1CC[C@@H](CN2CCC3(CC2)CN(c2ncncc2Oc2ccc(F)cc2C(=O)N(CCC(F)F)C(C)C)C3)OC1` [Example 242, N-(3,3-Difluoropropyl)-2-((4-(7-(((2S,5R)-5-(ethylsulfonamido)tetrahydro-2H-pyran-2-yl)methyl)-2,7-diazaspiro[3.5]nonan-2-yl)pyrimidin-5-yl)oxy)-5-fluoro-N-isopropylbenzamide], the IC50 was below 100 nM.
Turning to `CC(C)N(C(=O)c1cc(F)ccc1Oc1cncnc1N1CC2(CCN(C[C@@H]3CC[C@@H](NS(=O)(=O)N4CC5(CCOC5)C4)CO3)CC2)C1)C(C)C` [Example 223, 2-((4-(7-(((2S,5R)-5-(6-Oxa-2-azaspiro[3.4]octane-2-sulfonamido)tetrahydro-2H-pyran-2-yl)methyl)-2,7-diazaspiro[3.5]nonan-2-yl)pyrimidin-5-yl)oxy)-5-fluoro-N,N-diisopropylbenzamide], the IC50 is below 100 nM.
Turning to `CCN(C(=O)c1cc(F)ccc1Oc1cncnc1N1CC2(CCN(C[C@@H]3CC[C@@H](NC(=O)NCC(F)F)CO3)CC2)C1)C(C)C` [Example 41, 2-((4-(7-(((2S,5R)-5-(3-(2,2-Difluoroethyl)ureido)tetrahydro-2H-pyran-2-yl)methyl)-2,7-diazaspiro[3.5]nonan-2-yl)pyrimidin-5-yl)oxy)-N-ethyl-5-fluoro-N-isopropylbenzamide], the IC50 was in the range of 100 to 1000 nM.
In the case of `CC(C)N(C(=O)c1cc(F)ccc1Oc1cncnc1N1CC2(CCN(C[C@@H]3CC[C@@H](NS(=O)(=O)C4COC4)CO3)CC2)C1)C(C)C` [Example 16, 5-Fluoro-N,N-diisopropyl-2-((4-(7-(((2S,5R)-5-(oxetane-3-sulfonamido)tetrahydro-2H-pyran-2-yl)methyl)-2,7-diazaspiro[3.5]nonan-2-yl)pyrimidin-5-yl)oxy)benzamide], the IC50 is below 100 nM.
Consider `CC(C)N(CC(F)F)C(=O)c1cc(F)ccc1Oc1cncnc1N1CC2(CCN(C[C@@H]3CC[C@@H](NS(C)(=O)=O)CO3)CC2)C1` [Example 96, N-(2,2-Difluoroethyl)-5-fluoro-N-isopropyl-2-((4-(7-(((2S,5R)-5-(methylsulfonamido)tetrahydro-2H-pyran-2-yl)methyl)-2,7-diazaspiro[3.5]nonan-2-yl)pyrimidin-5-yl)oxy)benzamide], for which the IC50 was below 100 nM.
The result for `CC(C)N(CC(F)F)C(=O)c1cc(F)ccc1Oc1cncnc1N1CC2(CCN(C[C@@H]3CC[C@@H](NS(=O)(=O)NC4CC4)CO3)CC2)C1` [Example 149, 2-((4-(7-(((2S,5R)-5-((N-Cyclopropylsulfamoyl)amino)tetrahydro-2H-pyran-2-yl)methyl)-2,7-diazaspiro[3.5]nonan-2-yl)pyrimidin-5-yl)oxy)-N-(2,2-difluoroethyl)-5-fluoro-N-isopropylbenzamide] reads below 100 nM; that for `CCCS(=O)(=O)N[C@@H]1CC[C@@H](CN2CCC3(CC2)CN(c2ncncc2Oc2ccc(F)cc2C(=O)N(CC)C(C)C)C3)OC1` [Example 9, N-Ethyl-5-fluoro-N-isopropyl-2-((4-(7-(((2S,5R)-5-(propylsulfonamido)tetrahydro-2H-pyran-2-yl)methyl)-2,7-diazaspiro[3.5]nonan-2-yl)pyrimidin-5-yl)oxy)benzamide], below 100 nM.
For `CC(C)N(C(=O)c1cc(F)ccc1Oc1nncnc1N1CC2(CCN(C[C@@H]3CC[C@@H](NS(=O)(=O)C4CC4)CO3)CC2)C1)C(C)C` [Example 196, 2-((5-(7-(((2S,5R)-5-(Cyclopropanesulfonamido)tetrahydro-2H-pyran-2-yl)methyl)-2,7-diazaspiro[3.5]nonan-2-yl)-1,2,4-triazin-6-yl)oxy)-5-fluoro-N,N-diisopropylbenzamide] the value was below 100 nM; for `C[C@@H]1COC[C@@H](C)N1C(=O)c1cc(F)ccc1Oc1cncnc1N1CC2(CCN(C[C@@H]3CC[C@@H](NS(=O)(=O)N4CCCC4)CO3)CC2)C1` [Example 124, N-((3R,6S)-6-((2-(5-(2-((3R,5R)-3,5-Dimethylmorpholine-4-carbonyl)-4-fluorophenoxy)pyrimidin-4-yl)-2,7-diazaspiro[3.5]nonan-7-yl)methyl)tetrahydro-2H-pyran-3-yl)pyrrolidine-1-sulfonamide], below 100 nM; for `CC(C)N(C(=O)c1cc(F)ccc1Oc1cncnc1N1CC2(CCN(C[C@@H]3CC[C@@H](NS(=O)(=O)C4CC4)CO3)CC2)C1)C1CC(F)(F)C1` [Example 111, 2-((4-(7-(((2S,5R)-5-(Cyclopropanesulfonamido)tetrahydro-2H-pyran-2-yl)methyl)-2,7-diazaspiro[3.5]nonan-2-yl)pyrimidin-5-yl)oxy)-N-(3,3-difluorocyclobutyl)-5-fluoro-N-isopropylbenzamide], below 100 nM.
For `CCN(C(=O)c1cc(F)ccc1Oc1cncnc1N1CC2(CCN(C[C@@H]3CC[C@@H](NS(=O)(=O)C4COC4)CO3)CC2)C1)C(C)C` [Example 5, N-Ethyl-5-fluoro-N-isopropyl-2-((4-(7-(((2S,5R)-5-(oxetane-3-sulfonamido)tetrahydro-2H-pyran-2-yl)methyl)-2,7-diazaspiro[3.5]nonan-2-yl)pyrimidin-5-yl)oxy)benzamide] the value was below 100 nM.
